Experimental data as given in patent US10658848B2, “Materials for use with aqueous redox flow batteries and related methods and systems” (Massachusetts Institute of Technology, priority 2014, dated 2020).
Converted amounts (≈) assume the structure as drawn. Like-named read-outs stand apart in the source and are kept apart here.

Columns and labels:
[1] = Quantitative CV and rotating disk voltammetry with numerical fitting (Randles-Sevcik, Levich); format: physicochemical; conditions: for DO, diffusion coefficient for quinoxaline / DR, diffusion coefficient for the reduced species / α, transfer coefficient for the reduction (forward) reaction: 295 K; for number of electrons transferred, n: ± 95% confidence interval
Text: A set of quantitative experiments were designed to calculate the number of electrons transferred, diffusion coefficients, and transfer coefficients using the Randles-Sevcik equation for irreversible CVs (Eq. (E1)) and the Levich equation (Eq. (E2)). In Eq. (E1), ip is the peak current, n is the number of electrons transferred, α is the transfer coefficient, A is the electrode surface area, F is Faraday's constant, C is the reactant concentration, s is the scan rate, R is the universal gas constant, T is temperature, and D is the diffusion coefficient (e.g., see Compton et al. Understanding Voltammetry, 2nd ed., Imperial College Press, London, 2011). Additionally, in Eq. (E2), iL is the RDV limiting current, ω is the electrode rotation rate, and v is the kinematic viscosity (e.g., see Bard et al. Electrochemical Methods: Fundamentals and Applications, John Wiley & Sons, Danvers, 2001). Kinematic viscosities were determined from dynamic viscosities, which were interpolated from tables by Zaytsev and […] et al. Properties of Aqueous Solutions of Electrolytes, 1st ed., CRC Press, Boca Raton, 1992), and electrolyte densities, which were measured using a balance and known solution volume. All remaining variables are constants or were determined by the experimental design. Quantitative CV and RDV experiments were carried out in a water-jacketed three-electrode cell. Chilled water at a temperature of 295 K (22° C.) was continuously passed through the water jacket in order to maintain a constant temperature throughout the experiment. A rotating disk electrode with a 0.5 cm diameter glassy carbon electrode (0.196 cm^2) was used as a working electrode. A coiled Pt wire used as a counter electrode was housed in a glass compartment that was separated from the main chamber by a porous frit. Both chambers were filled with the same bulk electrolyte. The reference electrode was a double junction Ag/AgCl (10% KNO3), which had been calibrated against a commercially available reversible hydrogen electrode (BAS Inc.) in 1 M NaHCO3 solution by measuring OCV between the two electrodes. All cell components were purchased from Pine Instruments Co., including the rotator and motor used in RDV experiments. Cells were filled with 80 mL of solution, and the solution was bubbled with argon using a porous glass frit at a rate of 50 mL/min for 1 h before taking any electrochemical measurements. After 1 h, the argon gas bubbling stream was switched to an argon gas blanket above the solution. Three cycles of CV, with a stationary electrode, were recorded at each of the following scan rates: 5, 10, 20, 50, and 100 mV/s. Between CV and RDV experiments, the glassy carbon electrode was re-polished before beginning RDV experiments. […] Quantitative voltammetry experiments were performed in triplicate using freshly prepared solution and freshly polished glassy carbon electrodes for each trial. CV experiments were performed at five different scan rates, and RDV experiments were performed at five different rotation speeds for each electrolyte of interest. The aim of these experiments was to determine the number of electrons transferred during a quinoxaline redox reaction, the diffusion coefficients of quinoxaline and its reduced species in each electrolyte, and the transfer coefficients of the redox reactions. FIG. 5a-e and FIG. 6a-e display the third cycle of typical CV data at different scan rates and the second cathodic scan of typical RDV data at different rotation rates, respectively. In order to quantitatively determine the number of electrons transferred, a numerical fitting technique was employed. Among the irreversible Randles-Sevcik (Eq. (E1)) and Levich (Eq. (E2)) equations, there are four unknown variables: the number of electrons transferred, n, two diffusion coefficients, DO/DR, and the transfer coefficient, α. […]

[2] = Solubility limit of quinoxaline in electrolytes and DI H2O; format: physicochemical; conditions: thermodynamic from solid
Method: The solubility limit (at room temperature) of quinoxaline in several electrolytes and DI H2O was estimated using the following method. Scintillation vials were filled with a known volume of electrolyte, and quinoxaline was added in 0.5 M increments. The vials were then vortex sonicated for ˜5 min between quinoxaline additions. Once no more quinoxaline could be dissolved into the vial, the solubility limit was recorded. This method was accurate to the lowest 0.5 M concentration, and solution volume changes due to quinoxaline addition were not considered.

[3] = 0.45M K2SO4/0.1M KOH, pH 12.9, n=2 fixed
[4] = 0.495M K2SO4/0.01M KOH, pH 11.8, n=2 fixed
[5] = 0.9M KCl/0.1M KOH, pH 12.9, n=2 fixed
[6] = 0.99M KCl/0.01M KOH, pH 11.8, n=2 fixed

c1ccc2nccnc2c1 [quinoxaline]
DO, diffusion coefficient for quinoxaline [1, 3]: 7.3 ± 1.7 10^−6 cm^2/s | DR, diffusion coefficient for the reduced species [1, 3]: 4.4 ± 0.4 10^−6 cm^2/s | α, transfer coefficient for the reduction (forward) reaction [1, 3]: 0.60 ± 0.00 | number of electrons transferred, n ([1]; 0.45M K2SO4/0.1M KOH, pH 12.9): 2.54 ± 0.43 | DO, diffusion coefficient for quinoxaline [1, 4]: 6.4 ± 0.7 10^−6 cm^2/s | DR, diffusion coefficient for the reduced species [1, 4]: 4.8 ± 1.0 10^−6 cm^2/s | α, transfer coefficient for the reduction (forward) reaction [1, 4]: 0.59 ± 0.00 | number of electrons transferred, n ([1]; 0.495M K2SO4/0.01M KOH, pH 11.8): 2.26 ± 0.33 | DO, diffusion coefficient for quinoxaline [1, 5]: 6.7 ± 0.4 10^−6 cm^2/s | DR, diffusion coefficient for the reduced species [1, 5]: 5.9 ± 1.0 10^−6 cm^2/s | α, transfer coefficient for the reduction (forward) reaction [1, 5]: 0.62 ± 0.02 | number of electrons transferred, n ([1]; 0.9M KCl/0.1M KOH, pH 12.9): 2.90 ± 0.03 | DO, diffusion coefficient for quinoxaline [1, 6]: 6.0 ± 0.6 10^−6 cm^2/s | DR, diffusion coefficient for the reduced species [1, 6]: 4.9 ± 2.2 10^−6 cm^2/s | α, transfer coefficient for the reduction (forward) reaction [1, 6]: 0.59 ± 0.04 | number of electrons transferred, n ([1]; 0.99M KCl/0.01M KOH, pH 11.8): 1.89 ± 0.21 | DO, diffusion coefficient for quinoxaline ([1]; 1M KOH, pH 13.7, n=2 fixed): 5.8 ± 0.9 10^−6 cm^2/s | DR, diffusion coefficient for the reduced species ([1]; 1M KOH, pH 13.7, n=2 fixed): 4.0 ± 1.7 10^−6 cm^2/s | α, transfer coefficient for the reduction (forward) reaction ([1]; 1M KOH, pH 13.7, n=2 fixed): 0.60 ± 0.05 | number of electrons transferred, n ([1]; 1M KOH, pH 13.7): 2.34 ± 0.72 | diffusion coefficient of quinoxaline relative to the reduced species ([1]; in each electrolyte of Table E3): 1.1-1.7 × | mean calculated value for n (navg) ([1]; mean over the electrolytes in Table E2): 2.34 | transfer coefficient α for the forward reaction ([1]; overall, n=2 fixed): ≈ 0.6 | number of electrons transferred, n, rounded to nearest integer ([1]; rounded from navg): 2 | theoretical capacity ([1]; two-electron transfer process): 410 mAh/g | solubility ([2]; 0.45 M K2SO4/0.1 M KOH electrolyte, aqueous buffer, 0.45M K2SO4/0.1M KOH, pH 12.9, room temperature, three phase separation, read-out: Solubility Limit): 500 mM (≈ 65.1 mg/mL) | solubility ([2]; 0.495 M K2SO4/0.01 M KOH electrolyte, aqueous buffer, 0.495M K2SO4/0.01M KOH, pH 11.8, room temperature, three phase separation, read-out: Solubility Limit): 500 mM (≈ 65.1 mg/mL) | solubility ([2]; 0.9 M KCl/0.1 M KOH electrolyte, aqueous buffer, 0.9M KCl/0.1M KOH, pH 12.9, room temperature, bed of small crystals, read-out: Solubility Limit): 4000 mM (≈ 521 mg/mL) | solubility ([2]; 0.99 M KCl/0.01 M KOH electrolyte, aqueous buffer, 0.99M KCl/0.01M KOH, pH 11.8, room temperature, bed of small crystals, read-out: Solubility Limit): 4000 mM (≈ 521 mg/mL) | solubility ([2]; 1 M KOH electrolyte, aqueous buffer, 1M KOH, pH 13.7, room temperature, dendritic precipitation of crystals, read-out: Solubility Limit): 500 mM (≈ 65.1 mg/mL) | solubility ([2]; aqueous electrolytes containing K2SO4 or only KOH, aqueous buffer, read-out: solubility of quinoxaline): ≤ 500 mM | solubility ([2]; solutions containing KCl, aqueous buffer, read-out: solubility of quinoxaline): ≤ 4000 mM | solubility ([2]; water, DI H2O, pH 7.0, room temperature, bed of small crystals, read-out: Solubility Limit): 4500 mM (≈ 586 mg/mL)
